Reference: ChEMBL document CHEMBL5338752, “Carbamate JNK3 Inhibitors Show Promise as Effective Treatments for Alzheimer's Disease: In Vivo Studies on Mouse Models” (J Med Chem, 2023)
Calls of active or inactive are those of the source. No cut-off for these calls is given here.

Experiments:
[1] = biological target: Mitogen-activated protein kinase 8 (Homo sapiens, UniProt P45983); test: Inhibition of JNK1 (unknown origin) using ATF2 as substrate incubated for 40 mins in presence of [gamma33P]ATP by scintillation counting analysis
Mitogen-activated protein kinase 8, sequence (P45983 whole entry): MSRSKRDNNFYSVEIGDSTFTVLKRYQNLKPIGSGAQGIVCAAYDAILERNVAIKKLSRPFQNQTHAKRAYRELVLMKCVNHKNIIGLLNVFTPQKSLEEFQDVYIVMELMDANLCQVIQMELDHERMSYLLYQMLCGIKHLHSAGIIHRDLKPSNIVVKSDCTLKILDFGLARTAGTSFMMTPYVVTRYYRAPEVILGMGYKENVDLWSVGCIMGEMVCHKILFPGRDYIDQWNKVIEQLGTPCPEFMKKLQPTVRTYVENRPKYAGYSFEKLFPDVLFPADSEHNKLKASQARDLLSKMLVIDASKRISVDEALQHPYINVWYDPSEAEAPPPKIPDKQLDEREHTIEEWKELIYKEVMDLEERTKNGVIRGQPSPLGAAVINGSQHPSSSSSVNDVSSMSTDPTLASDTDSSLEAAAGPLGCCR

[2] = biological target: Mitogen-activated protein kinase 9 (Homo sapiens, UniProt P45984); test: Inhibition of JNK2 (unknown origin) at 1.0 uM preincubated for 20 mins followed by 33P-ATP addition and measured after 2 hrs by P81 filter binding method relative to control; conditions: time 140.0 min
Mitogen-activated protein kinase 9, sequence (P45984 whole entry, looked up): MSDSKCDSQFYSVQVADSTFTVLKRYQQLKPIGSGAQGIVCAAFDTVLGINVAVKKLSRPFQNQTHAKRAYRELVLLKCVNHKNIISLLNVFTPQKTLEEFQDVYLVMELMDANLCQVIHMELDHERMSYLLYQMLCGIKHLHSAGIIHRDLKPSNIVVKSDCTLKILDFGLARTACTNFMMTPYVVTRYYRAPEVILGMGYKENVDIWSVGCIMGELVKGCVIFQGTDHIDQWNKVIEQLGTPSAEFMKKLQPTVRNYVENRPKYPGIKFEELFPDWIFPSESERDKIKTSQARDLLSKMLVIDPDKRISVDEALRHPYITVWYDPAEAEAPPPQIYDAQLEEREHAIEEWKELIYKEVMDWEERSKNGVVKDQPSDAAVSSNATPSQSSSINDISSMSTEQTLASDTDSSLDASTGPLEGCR

[3] = Effective permeability of compound by […] method; type: ADME; conditions: read-out: Peff
[4] = Efflux ratio of apparent permeability across basolateral to apical side to apical to basolateral side in human Caco-2 cells; type: ADME, cell-based
[5] = tested on: Neuron; test: Inhibition of apoptosis in rat cortex neuron cells assessed as prevention of A-beta (1 to 42) induced cleaved caspase-3 formation at 10 to 20 uM measured after 24 hrs by Western blot analysis; type: functional, cell-based; conditions: dose 10-20 µM
[6] = biological target: Mitogen-activated protein kinase 10 (Rattus norvegicus) (UniProt P49187); test: Inhibition of anisomycin induced JNK3 activation in rat cortex neuron cells assessed as inhibition of APP phosphorylation at 10 to 20 uM preincubated for 90 mins followed by anisomycin addition and measured after 40 mins by Western blot analysis; type: cell-based; conditions: dose 10-20 µM
Mitogen-activated protein kinase 10 (Rattus norvegicus), sequence (P49187 whole entry): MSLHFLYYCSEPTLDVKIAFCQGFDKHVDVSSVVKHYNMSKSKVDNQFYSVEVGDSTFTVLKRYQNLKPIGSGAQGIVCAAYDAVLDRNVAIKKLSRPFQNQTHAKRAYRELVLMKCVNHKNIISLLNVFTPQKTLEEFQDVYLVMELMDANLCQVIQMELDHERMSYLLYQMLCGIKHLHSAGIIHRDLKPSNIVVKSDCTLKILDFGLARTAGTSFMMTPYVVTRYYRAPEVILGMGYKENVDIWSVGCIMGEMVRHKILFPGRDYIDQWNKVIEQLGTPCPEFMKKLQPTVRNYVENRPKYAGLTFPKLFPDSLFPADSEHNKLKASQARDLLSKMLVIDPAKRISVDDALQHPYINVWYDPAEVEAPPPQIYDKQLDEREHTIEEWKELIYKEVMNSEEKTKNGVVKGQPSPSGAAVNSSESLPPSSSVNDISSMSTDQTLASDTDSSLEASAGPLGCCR

[7] = tested on: Mus musculus; test: Anti-alzheimer activity against triple transgenic mouse alzheimer disease model assessed as spontaneous alteration at 30 mg/kg, po administered daily for 2.2 months and measured after 119 days by Y-maze test (reference value: 45.55+/-2.30%); type: functional; conditions: time 119 day
[8] = tested on: Mus musculus; test: Anti-alzheimer activity against triple transgenic mouse alzheimer disease model assessed as latency time at 30 mg/kg, po administered daily for 2.2 months and measured after 122 to 123 days by passive avoidance test (reference value: 31.3+/-6.9 sec); type: functional; conditions: time 122-123 day
[9] = tested on: Mus musculus; test: Anti-alzheimer activity against triple transgenic mouse alzheimer disease model assessed as time spent in platform quadrant at 30 mg/kg, po administered daily for 2.2 months and measured after 137 days by Morris water maze test (reference value: 12.26+/-2.34 sec); type: functional; conditions: time 137 day
[10] = tested on: Mus musculus; test: Anti-alzheimer activity against triple transgenic mouse alzheimer disease model assessed as time spent in target zone at 60 mg/kg, po administered daily for 2.2 months and measured after 137 days by Morris water maze test (reference value: 4.48+/-1.63 sec); type: functional; conditions: time 137 day
[11] = tested on: Mus musculus; test: Anti-alzheimer activity against triple transgenic mouse alzheimer disease model assessed as escape latency time at 30 mg/kg, po measured upto 5 days by Morris water maze test (reference value: 58.62+/-1.15 sec); type: functional; conditions: time <= 5 day
[12] = tested on: Mus musculus; test: Anti-alzheimer activity against triple transgenic mouse alzheimer disease model assessed as escape latency time at 60 mg/kg, po measured upto 5 days by Morris water maze test (reference value: 58.62+/-1.15 sec); type: functional; conditions: time <= 5 day
[13] = tested on: Mus musculus; test: Anti-alzheimer activity against APP/PS1 dE9 double transgenic mouse model assessed as escape latency time at 60 mg/kg, po administered daily for 2 months and measured after 60 days by Passive avoidance test (reference value: 28.6+/-4.3 sec); type: functional; conditions: time 60 day

## CNC(=O)Oc1cc(F)c2nc(-c3ccc4ccccc4c3)n(-c3ccnc(N[C@H]4CCCN(C(=O)C5CC5)C4)n3)c2c1
[1]
  IC50: > 10 µM
[2]
  inhibition: 20%
[3]
  Papp: 55.8 ×10⁻⁶ cm/s
[4]
  efflux ratio: 14.7
[5]
  inhibition: Active
[6]
  inhibition: Active
[7]
  Activity: 49.78%
[8]
  Time: 31.6 s
[9]
  Time: 23.4 s
[10]
  Time: 16.28 s
[11]
  Time: 26.61 s
[12]
  Time: 25.72 s
[13]
  Time: 46.5 s
